Assay results published in patent US11225492B2, “Heterocycles useful as anti-cancer agents” (Hangzhou Innogate Pharma Co., Ltd., priority 2015, dated 2022).
Where two headings read alike, the source gives them in different places.

Legend:
Type in all cases: biochemical
CDK2/CycA2 = CDK2/CycA2 (Homo sapiens (Human), UniProt P24941); test: CDK2/CycA2 kinase Mobility Shift Assay; settings: CDK2/CycA2 12 nM, ATP Km 39 μM, 60 min, 28° C.
Experimental: (§1) 1. CDK2, CDK4 and CDK6 Kinase Assays:
(§2) CDK2/CycA2 and CDK6/cycD3 were assayed under buffer conditions in the presence of 50 mM HEPES (pH 7.5), 10 mM MgCl2, 0.0015% Brij-35, and 2 mM dithiothreitol, CDK4/CycD3 with buffer condition of 20 mM HEPES (pH 7.5), 10 mM MgCl2, 0.01% Triton X-100, and 2 mM dithiothreitol. Prepare compounds to 50× of the final desired highest inhibitor concentration by 100% DMSO and serial dilution in 3-fold for total of 10 concentrations. […] After assay for 60 min, 180 min, 60 min respectively at 28° C., reactions were terminated with stop solution (50 mM EDTA, 0.015% Brij-35, 0.2% Coating Reagent #3 and 100 mM HEPES (pH 7.5)). Collect conversion on Caliper EZ Reader. IC50 values were calculated by fitting the dose-response curves with Xlfit excel add-in version 4.3.1.

CDK4/CycD3 = CDK4/CycD3 (Homo sapiens (Human), UniProt P11802); test: CDK4/CycD3 kinase Mobility Shift Assay
Experimental: as §1, §2

CDK6/cycD3 = CDK6/cycD3 (Homo sapiens (Human), UniProt Q00534); test: CDK6/cycD3 kinase Mobility Shift Assay; settings: CDK6/cycD3 15 nM, ATP Km 800 μM, 60 min, 28° C.
Experimental: as §1, §2

HDAC-1 = HDAC-1 (Homo sapiens (Human), UniProt Q13547); test: HDAC-1 fluorogenic deacetylase assay; settings: recombinant, full-length protein, Ac-peptide-AMC substrate; read-out: HDAC1 (IC50)
Experimental: (§3) 2. HDAC-1, HDAC-2 and HDAC-6 Assays:
(§4) The inhibitory effect of compounds on HDAC-1, HDAC-2 and HDAC-6 function was determined in vitro using an optimized homogenous assay performed in 384-well plate format. In this assay, recombinant, full-length HDAC-1, HDAC-2 or HDAC-6 protein (BPS Biosciences) was incubated with Ac-peptide-AMC with concentration in Km plot. Reactions were performed in Tris-based assay buffer and followed for fluorogenic release of 7-amino-4-methylcoumarin from substrate upon deacetylase and trypsin enzymatic activity. Fluorescence measurements were obtained using a multilabel plate reader (Synergy MX with excitation at 355 nm and emission at 460 nm). Data were analyzed on a plate-by-plate basis for the linear range of fluorescence over time. Fit the data in GraphPad Prism V5.0 software to obtain IC50 values using equation (Y=Bottom+(Top−Bottom)/(1+10^((Log IC50−X)*Hill Slope), Y is % inhibition and X is compound concentration).

HDAC-6 = HDAC-6 (Homo sapiens (Human), UniProt Q9UBN7); test: HDAC-6 fluorogenic deacetylase assay; settings: recombinant, full-length protein, Ac-peptide-AMC substrate; read-out: HDAC6 (IC50)
Experimental: as §3, §4

[1] = CDK4/CycD3 10 nM, ATP Km 221 μM, 180 min, 28° C.

Sequence of HDAC-1 (Q13547 whole entry): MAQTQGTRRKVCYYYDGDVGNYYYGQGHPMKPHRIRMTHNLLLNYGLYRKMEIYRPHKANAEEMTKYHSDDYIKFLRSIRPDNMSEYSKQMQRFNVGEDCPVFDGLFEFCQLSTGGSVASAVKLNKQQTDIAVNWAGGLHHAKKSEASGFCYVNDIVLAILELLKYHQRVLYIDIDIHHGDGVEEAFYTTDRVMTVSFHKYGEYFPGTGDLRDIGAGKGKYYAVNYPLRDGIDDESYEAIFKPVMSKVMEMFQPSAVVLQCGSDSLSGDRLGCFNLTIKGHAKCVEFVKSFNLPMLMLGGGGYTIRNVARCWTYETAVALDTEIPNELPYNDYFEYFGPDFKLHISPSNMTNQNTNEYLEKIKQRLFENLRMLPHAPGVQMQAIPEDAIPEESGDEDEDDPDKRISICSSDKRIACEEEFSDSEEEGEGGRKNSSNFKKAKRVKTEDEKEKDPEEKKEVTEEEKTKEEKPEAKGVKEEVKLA
Sequence of HDAC-6 (Q9UBN7 whole entry): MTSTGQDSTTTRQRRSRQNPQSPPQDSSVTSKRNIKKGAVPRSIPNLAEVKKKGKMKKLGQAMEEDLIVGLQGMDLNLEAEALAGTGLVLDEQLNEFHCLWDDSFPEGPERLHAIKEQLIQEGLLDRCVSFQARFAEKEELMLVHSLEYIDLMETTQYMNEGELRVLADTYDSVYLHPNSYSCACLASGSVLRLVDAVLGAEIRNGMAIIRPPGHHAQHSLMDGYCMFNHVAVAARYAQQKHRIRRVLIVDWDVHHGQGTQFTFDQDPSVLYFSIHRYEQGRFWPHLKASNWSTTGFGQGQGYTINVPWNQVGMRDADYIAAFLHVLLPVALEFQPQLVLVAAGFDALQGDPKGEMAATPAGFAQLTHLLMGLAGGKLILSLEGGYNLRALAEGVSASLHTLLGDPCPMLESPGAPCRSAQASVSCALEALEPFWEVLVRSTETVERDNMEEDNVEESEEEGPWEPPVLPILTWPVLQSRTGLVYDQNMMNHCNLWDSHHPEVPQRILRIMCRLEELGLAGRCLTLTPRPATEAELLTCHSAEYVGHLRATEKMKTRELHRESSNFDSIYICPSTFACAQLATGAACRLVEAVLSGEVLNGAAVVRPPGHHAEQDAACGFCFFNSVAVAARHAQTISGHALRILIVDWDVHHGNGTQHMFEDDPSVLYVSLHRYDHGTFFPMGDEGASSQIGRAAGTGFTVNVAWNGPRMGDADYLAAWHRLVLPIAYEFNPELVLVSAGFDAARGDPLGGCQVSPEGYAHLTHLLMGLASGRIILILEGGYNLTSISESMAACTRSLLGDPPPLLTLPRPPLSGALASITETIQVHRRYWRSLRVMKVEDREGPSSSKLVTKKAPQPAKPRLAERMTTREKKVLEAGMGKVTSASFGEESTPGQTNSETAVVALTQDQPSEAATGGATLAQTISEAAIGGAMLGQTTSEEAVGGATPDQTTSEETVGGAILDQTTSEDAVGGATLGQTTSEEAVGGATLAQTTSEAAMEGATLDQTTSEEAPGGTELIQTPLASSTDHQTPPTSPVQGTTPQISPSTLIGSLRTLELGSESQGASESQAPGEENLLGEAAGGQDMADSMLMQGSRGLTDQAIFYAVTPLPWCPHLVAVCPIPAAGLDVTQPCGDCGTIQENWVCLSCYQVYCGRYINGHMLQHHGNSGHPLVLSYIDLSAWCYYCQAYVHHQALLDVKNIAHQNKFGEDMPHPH
Sequence of CDK4/CycD3 (P11802 whole entry, species assumed): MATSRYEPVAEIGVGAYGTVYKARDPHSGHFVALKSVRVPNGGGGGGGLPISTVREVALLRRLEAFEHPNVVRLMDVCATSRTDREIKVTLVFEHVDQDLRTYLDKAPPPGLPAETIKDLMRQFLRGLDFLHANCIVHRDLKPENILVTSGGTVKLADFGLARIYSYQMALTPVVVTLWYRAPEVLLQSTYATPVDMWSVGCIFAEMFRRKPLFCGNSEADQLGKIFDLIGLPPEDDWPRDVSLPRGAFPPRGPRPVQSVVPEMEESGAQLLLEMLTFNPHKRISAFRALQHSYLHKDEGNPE
Sequence of CDK4/CycD3 (P30281 whole entry partner, species assumed): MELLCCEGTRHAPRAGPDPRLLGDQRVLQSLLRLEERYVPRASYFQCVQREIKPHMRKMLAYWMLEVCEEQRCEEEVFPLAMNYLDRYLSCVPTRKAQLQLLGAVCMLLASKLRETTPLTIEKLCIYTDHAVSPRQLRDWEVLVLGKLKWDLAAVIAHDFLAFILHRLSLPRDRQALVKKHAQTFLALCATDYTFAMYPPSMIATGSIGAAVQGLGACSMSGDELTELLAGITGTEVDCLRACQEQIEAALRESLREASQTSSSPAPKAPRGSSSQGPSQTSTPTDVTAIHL
Sequence of CDK6/cycD3 (Q00534 whole entry, species assumed): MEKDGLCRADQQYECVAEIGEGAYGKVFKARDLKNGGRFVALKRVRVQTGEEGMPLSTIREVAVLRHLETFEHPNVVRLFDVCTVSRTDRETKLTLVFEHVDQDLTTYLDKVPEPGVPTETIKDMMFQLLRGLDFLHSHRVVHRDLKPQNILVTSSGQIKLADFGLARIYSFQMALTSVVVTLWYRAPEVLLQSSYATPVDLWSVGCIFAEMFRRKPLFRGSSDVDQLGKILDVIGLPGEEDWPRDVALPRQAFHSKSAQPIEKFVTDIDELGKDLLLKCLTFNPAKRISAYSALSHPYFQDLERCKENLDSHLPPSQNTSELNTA
Sequence of CDK6/cycD3 (P30281 whole entry partner, species assumed): as the sequence (P30281 whole entry partner, species assumed) above

| Structure (SMILES) | IC50 (CDK2/CycA2) [nM] | IC50 (CDK4/CycD3; [1]) [nM] | IC50 (CDK6/cycD3) [nM] | IC50 (CDK4/CycD3) [nM] | IC50 (HDAC-1) [nM] | IC50 (HDAC-6) [nM] |
| --- | --- | --- | --- | --- | --- | --- |
| CC(=O)c1c(C)c2cnc(Nc3ccc(N4CC5CNCC(C4)C5(F)F)cn3)nc2n(C2CCCC2)c1=O (single isomer, unassigned) [Compound 4-1, 6-acetyl-8-cyclopentyl-2-(5-(9,9-difluoro-3,7-diazabicyclo[3.3.1]nonan-3-yl)pyridin-2-ylamino)-5-methylpyrido[2,3-d]pyrimidin-7(8H)-one] | < 1000 | < 25 | < 100 |  |  |  |
| CC(=O)c1c(C)c2cnc(Nc3ccc(N4CC5CNCC(C4)O5)cn3)nc2n(C2CCCC2)c1=O [Compound 2, 2-(5-(9-oxa-3,7-diazabicyclo[3.3.1]nonan-3-yl)pyridin-2-ylamino)-6-acetyl-8-cyclopentyl-5-methylpyrido[2,3-d]pyrimidin-7(8H)-one] | > 5000 | < 25 | < 100 |  |  |  |
| CC(=O)c1c(C)c2cnc(Nc3ccc(N4CCC5(CC4)CNC5)cn3)nc2n(C2CCCC2)c1=O [Compound 3, 2-(5-(2,7-Diazaspiro[3.5]nonan-7-yl)pyridin-2-ylamino)-6-acetyl-8-cyclopentyl-5-methylpyrido[2,3-d]pyrimidin-7(8H)-one] | > 5000 | < 10 | < 25 |  |  |  |
| CC(=O)c1c(C)c2cnc(Nc3ccc(N4CCCC5(CCNCC5)C4)cn3)nc2n(C2CCCC2)c1=O [Compound 6, 2-(5-(2,9-diazaspiro[5.5]undecan-2-yl)pyridin-2-ylamino)-6-acetyl-8-cyclopentyl-5-methylpyrido[2,3-d]pyrimidin-7(8H)-one] | > 5000 | < 10 | < 25 |  |  |  |
| CC(=O)c1c(C)c2cnc(Nc3ccc(N4CCN(C(=O)CCCC(=O)NO)CC4)cn3)nc2n(C2CCCC2)c1=O [Compound 13, 5-(4-(6-(6-acetyl-8-cyclopentyl-5-methyl-7-oxo-7,8-dihydropyrido[2,3-d]pyrimidin-2-ylamino)pyridin-3-yl)piperazin-1-yl)-N-hydroxy-5-oxopentanamide] | > 1000 | < 25 | < 50 |  |  |  |
| CC(=O)c1c(C)c2cnc(Nc3ccc(N4CCN(CCCCCCC(=O)NO)CC4)cn3)nc2n(C2CCCC2)c1=O [Compound 14, 7-(4-(6-(6-acetyl-8-cyclopentyl-5-methyl-7-oxo-7,8-dihydropyrido[2,3-d]pyrimidin-2-ylamino)pyridin-3-yl)piperazin-1-yl)-N-hydroxyheptanamide] |  | < 10 | < 10 |  | < 500 | < 50 |
| CC(=O)c1c(C)c2cnc(Nc3ccc(N4CCN(CCCCCCCC(=O)NO)CC4)cn3)nc2n(C2CCCC2)c1=O [Compound 15, 8-(4-(6-((6-acetyl-8-cyclopentyl-5-methyl-7-oxo-7,8-dihydropyrido[2,3-d]pyrimidin-2-yl)amino)pyridin-3-yl)piperazin-1-yl)-N-hydroxyoctanamide] | > 1000 | < 10 | < 25 |  | < 500 | < 50 |
| CC(=O)c1c(C)c2cnc(Nc3ccc(N4CCN(Cc5ccc(C(=O)NO)cc5)CC4)cn3)nc2n(C2CCCC2)c1=O [Compound 16, 4-((4-(6-((6-acetyl-8-cyclopentyl-5-methyl-7-oxo-7,8-dihydropyrido[2,3-d]pyrimidin-2-yl)amino)pyridin-3-yl)piperazin-1-yl)methyl)-N-hydroxybenzamide] | > 1000 | < 10 | < 50 |  | < 500 | < 10 |

Results, then the compound that gave them:

| IC50 (CDK2/CycA2) [nM] | IC50 (CDK4/CycD3; [1]) [nM] | IC50 (CDK6/cycD3) [nM] | IC50 (CDK4/CycD3) [nM] | IC50 (HDAC-1) [nM] | IC50 (HDAC-6) [nM] | Structure (SMILES) |
| --- | --- | --- | --- | --- | --- | --- |
| > 5000 | < 10 | < 25 |  |  |  | CC(=O)c1c(C)c2cnc(Nc3ccc(N4CC5CNCC(C5)C4)cn3)nc2n(C2CCCC2)c1=O [Compound 1, 2-(5-(3,7-diazabicyclo[3.3.1]nonan-3-yl)pyridin-2-ylamino)-6-acetyl-8-cyclopentyl-5-methylpyrido[2,3-d]pyrimidin-7(8H)-one] |
|  | < 50 | < 100 |  |  |  | CC(=O)c1c(C)c2cnc(Nc3ccc(N4CC5CNCC(C4)C5(F)F)cn3)nc2n(C2CCCC2)c1=O [Compound 4-2, 6-acetyl-8-cyclopentyl-2-(5-(9,9-difluoro-3,7-diazabicyclo[3.3.1]nonan-3-yl)pyridin-2-ylamino)-5-methylpyrido[2,3-d]pyrimidin-7(8H)-one] |
| > 1000 |  | < 100 | < 10 |  |  | CC(=O)c1c(C)c2cnc(Nc3ccc4c(n3)CCNC4)nc2n(C2CCCC2)c1=O [Compound 8, 6-acetyl-8-cyclopentyl-5-methyl-2-(5,6,7,8-tetrahydro-1,6-naphthyridin-2-ylamino)pyrido[2,3-d]pyrimidin-7(8H)-one] |
| > 10000 | < 10 | < 25 |  | < 50 | < 10 | CC(=O)c1c(C)c2cnc(Nc3ccc(N4CCN(C(=O)CCCCCCC(=O)NO)CC4)cn3)nc2n(C2CCCC2)c1=O [Compound 12, 8-(4-(6-(6-acetyl-8-cyclopentyl-5-methyl-7-oxo-7,8-dihydropyrido[2,3-d]pyrimidin-2-ylamino)pyridin-3-yl)piperazin-1-yl)-N-hydroxy-8-oxooctanamide] |
| > 1000 | < 50 | < 500 |  | < 500 | < 50 | CC(=O)c1c(C)c2cnc(Nc3ccc(C(=O)NO)cn3)nc2n(C2CCCC2)c1=O [Compound 17, 6-((6-acetyl-8-cyclopentyl-5-methyl-7-oxo-7,8-dihydropyrido[2,3-d]pyrimidin-2-yl)amino)-N-hydroxynicotinamide] |
| > 1000 | < 50 | < 1000 |  | < 50 | < 10 | CC(=O)c1c(C)c2cnc(Nc3ccc(C(=O)NCCCCCCC(=O)NO)cn3)nc2n(C2CCCC2)c1=O [Compound 18, 6-((6-acetyl-8-cyclopentyl-5-methyl-7-oxo-7,8-dihydropyrido[2,3-d]pyrimidin-2-yl)amino)-N-(7-(hydroxyamino)-7-oxoheptyl)nicotinamide] |
